Experimental data from patent publication US12611378B2 (Bausch Health Ireland Limited, priority 2020, dated 2026).

Assay: Regional bioavailability of rifaximin, open-label 5-way crossover study in healthy male subjects
Assay type: in vivo, human
Conditions: based on comparisons of AUC0-24 with AUCact-24, geometric mean
Description: Blood samples were collected pre-dose and at specified time points after dosing for PK analysis.

CO[C@H]1/C=C/O[C@@]2(C)Oc3c(C)c(O)c4c(O)c(c5c(nc6cc(C)ccn65)c4c3C2=O)NC(=O)/C(C)=C\C=C\[C@H](C)[C@H](O)[C@@H](C)[C@@H](O)[C@@H](C)[C@H](OC(C)=O)[C@@H]1C [Rifaximin, 4-Deoxy-4′-methylpyrido[1′,2′-1,2]imidazo[5,4-c]rifamycin SV]
Frel (Regimen B: 150 mg rifaximin SSD delivered to the proximal small bowel): 36.4%
Frel (Regimen C: 150 mg rifaximin SSD delivered to the distal small bowel): 2.09%
Frel (Regimen D: 150 mg rifaximin SSD delivered to the colon): 0.216%
Frel (Regimen E: 150 mg rifaximin SSD delivered to the mid small bowel): 7.08%
